In US12673924B2, “Valiolamine derivatives as glucosidase inhibitors” (Emergent Product Development Gaithersburg Inc., priority 2021, dated 2026):

Experiments:
Format in all cases: biochemical
[1] = biological target: rat maltase; test: Intestinal alpha-glucosidase assay, maltose substrate; details: alpha-glucosidase from intestinal rat powder
Protocol: (§1) Intestinal alpha-glucosidases (rat maltase and sucrase): Intestinal alpha-glucosidases act upon 1,4-alpha-glucoside bonds, breaking down disaccharides to glucose. To perform this assay, partially purified alpha-glucosidase from intestinal rat powder was incubated for 60 minutes at 37° C. with multiple dilutions of test compounds. Maltose or Sucrose respectively was then introduced as substrate to the mixture and incubated for 30 minutes at 37° C. The reaction was stopped by a 5-minute incubation at 90° C. and the resultant glucose production is detected using Sigma's Glucose GO Kit. Percent inhibition was then plotted as a function of concentration for each test compound. The IC50 was determined using a 4-PL curve fit and serves as the measure of relative inhibition of each test compound (see Table 4). Table 4 summarizes the results of IC50s for each molecule against each tested glucosidase enzyme.

[2] = biological target: T1, rat sucrase (Rattus norvegicus, UniProt P23739); test: Intestinal alpha-glucosidase assay, sucrose substrate; details: alpha-glucosidase from intestinal rat powder
T1 construct: partially purified alpha-glucosidase from intestinal rat powder; from tissue; host or cells: rat intestinal powder
T1 sequence (P23739 whole entry): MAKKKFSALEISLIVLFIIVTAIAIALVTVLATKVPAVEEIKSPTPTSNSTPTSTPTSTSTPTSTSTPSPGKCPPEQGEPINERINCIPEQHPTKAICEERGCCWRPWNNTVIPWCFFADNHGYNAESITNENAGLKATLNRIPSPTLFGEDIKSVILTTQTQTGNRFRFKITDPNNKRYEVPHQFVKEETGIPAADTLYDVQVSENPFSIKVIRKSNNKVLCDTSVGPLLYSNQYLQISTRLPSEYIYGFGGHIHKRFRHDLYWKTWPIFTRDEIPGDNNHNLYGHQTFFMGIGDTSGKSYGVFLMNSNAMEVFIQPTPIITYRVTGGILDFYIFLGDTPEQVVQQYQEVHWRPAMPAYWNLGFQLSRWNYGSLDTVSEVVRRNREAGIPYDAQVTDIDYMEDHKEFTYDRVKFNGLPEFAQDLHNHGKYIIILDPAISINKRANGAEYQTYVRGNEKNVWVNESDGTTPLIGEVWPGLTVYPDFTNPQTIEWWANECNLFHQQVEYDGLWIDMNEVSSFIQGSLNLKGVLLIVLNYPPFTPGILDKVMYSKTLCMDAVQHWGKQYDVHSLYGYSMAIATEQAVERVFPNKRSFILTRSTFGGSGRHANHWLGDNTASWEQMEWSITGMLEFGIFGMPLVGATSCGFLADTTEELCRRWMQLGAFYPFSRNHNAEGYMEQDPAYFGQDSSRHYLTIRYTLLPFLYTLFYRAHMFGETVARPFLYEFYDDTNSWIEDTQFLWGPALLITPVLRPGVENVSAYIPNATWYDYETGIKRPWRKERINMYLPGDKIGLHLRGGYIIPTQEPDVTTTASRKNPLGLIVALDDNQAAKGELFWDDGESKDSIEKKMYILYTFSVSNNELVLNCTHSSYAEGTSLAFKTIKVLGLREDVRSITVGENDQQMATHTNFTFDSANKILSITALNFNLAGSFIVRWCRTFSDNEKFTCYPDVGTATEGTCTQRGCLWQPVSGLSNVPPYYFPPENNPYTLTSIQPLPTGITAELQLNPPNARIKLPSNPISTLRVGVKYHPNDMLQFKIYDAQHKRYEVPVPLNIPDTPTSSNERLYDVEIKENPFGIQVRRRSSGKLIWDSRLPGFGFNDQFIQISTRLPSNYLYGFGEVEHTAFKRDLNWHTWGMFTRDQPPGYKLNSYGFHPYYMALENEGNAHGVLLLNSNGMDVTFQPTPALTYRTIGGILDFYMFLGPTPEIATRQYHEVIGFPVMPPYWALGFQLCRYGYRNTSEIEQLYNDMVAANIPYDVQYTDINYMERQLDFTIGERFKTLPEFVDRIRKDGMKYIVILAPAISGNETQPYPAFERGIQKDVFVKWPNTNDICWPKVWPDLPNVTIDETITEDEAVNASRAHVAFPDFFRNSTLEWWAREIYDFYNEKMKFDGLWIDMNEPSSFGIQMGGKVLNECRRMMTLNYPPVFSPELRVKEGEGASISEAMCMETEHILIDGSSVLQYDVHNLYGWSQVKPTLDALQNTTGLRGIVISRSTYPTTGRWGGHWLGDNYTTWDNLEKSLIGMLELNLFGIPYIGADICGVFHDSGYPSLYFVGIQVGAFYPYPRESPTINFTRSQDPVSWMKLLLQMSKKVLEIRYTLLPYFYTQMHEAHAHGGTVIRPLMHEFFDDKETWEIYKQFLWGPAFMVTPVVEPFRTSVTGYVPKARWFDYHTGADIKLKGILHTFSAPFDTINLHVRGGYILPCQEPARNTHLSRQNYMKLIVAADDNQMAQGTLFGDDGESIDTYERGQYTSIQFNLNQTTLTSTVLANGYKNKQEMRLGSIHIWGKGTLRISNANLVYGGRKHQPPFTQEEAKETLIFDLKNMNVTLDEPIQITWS
Protocol: as §1

[3] = biological target: T2, recombinant human GBA (Homo sapiens, UniProt P04062); test: Beta-glucocerebrosidase (GBA) inhibition assay; details: 4-methylumbelliferyl-beta-D-pyranoside substrate, 4-PL curve fit
T2 construct: purchased
T2 sequence (P04062 40-536): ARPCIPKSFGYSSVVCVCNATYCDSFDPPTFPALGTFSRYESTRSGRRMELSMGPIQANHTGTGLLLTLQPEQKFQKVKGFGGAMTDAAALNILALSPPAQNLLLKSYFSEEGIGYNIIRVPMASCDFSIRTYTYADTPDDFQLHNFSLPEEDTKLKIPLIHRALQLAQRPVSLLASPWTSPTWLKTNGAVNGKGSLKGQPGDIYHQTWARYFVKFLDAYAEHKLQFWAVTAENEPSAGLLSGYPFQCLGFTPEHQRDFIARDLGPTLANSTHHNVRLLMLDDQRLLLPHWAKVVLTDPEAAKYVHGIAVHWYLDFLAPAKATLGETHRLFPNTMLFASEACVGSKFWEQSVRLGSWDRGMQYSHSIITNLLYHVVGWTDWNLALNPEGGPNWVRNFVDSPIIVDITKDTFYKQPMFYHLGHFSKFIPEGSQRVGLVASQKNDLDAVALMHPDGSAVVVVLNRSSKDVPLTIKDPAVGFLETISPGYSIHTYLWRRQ
Protocol: Beta-glucocerebrosidase (GBA, also referred to glucosylceramidase): To analyze inhibitory effects of a test compound, commercially available recombinant human GBA was incubated with multiple dilutions of test compound for 60 minutes at 37° C. 4-methylumbelliferyl-beta-D-pyranoside was then introduced to the mixture as substrate. Following incubation for 60 minutes at 37° C., 1,4-methyllumbelliferone was generated, and the reaction was stopped with the stop solution (0.5 M glycine; 0.3 M NaOH, pH 10). 1,4-methyllumbelliferone was detected by fluorescence (excitation at 365 nm, emission at 440 nm). Relative fluorescence is compared to untreated enzymatic activity and test compound concentration is then plotted as a function of percent inhibition. The IC50 was determined using a 4-PL curve fit as the measure of relative inhibitory activity of each test compound (see Table 4).

Q: What does the source list for CCCCN[C@H]1C[C@](O)(CO)[C@@H](O)[C@H](O)[C@H]1O [Compound 1, (1S,2S,3R,4S,5S)-5-(butylamino)-1-(hydroxymethyl)cyclohexane-1,2,3,4-tetraol]?
A: IC50 [1]: 1.47 µM; IC50 [2]: 0.07 µM; IC50 [3]: > 1000 µM
